According to patent publication US12617762B2, “Carboxy derivatives with antiinflamatory properties” (Sitryx Therapeutics Limited, priority 2019, dated 2026):
pEC50, pIC50: −log10 of the molar value. Counter-ions that a name gives are not always drawn. Like-named read-outs stand apart in the source and are kept apart here.

Assays:
Assay type in all cases: cell-based
[1] = system: IL-1β cytokine output from THP-1s; assay: THP-1 AlphaLISA IL-1β cytokine inhibition assay; details: Homo sapiens
How it was run: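 THP-1 cells differentiated with PMA for 72 h, pre-incubated with compound 30 min, then LPS-primed 24 h and Nigericin-stimulated 1 h (37° C./5% CO2). Supernatant IL-1β measured by AlphaLISA; percentage inhibition normalised to +LPS (high) and −LPS (low) plate controls.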

[2] = system: IL-6 cytokine output from THP-1s; assay: THP-1 AlphaLISA IL-6 cytokine inhibition assay; details: Homo sapiens, LPS then nigericin
Procedure: The cytokine inhibition profiles of compounds of formula (I) were determined in a differentiated THP-1 cell assay. All assays were performed in RPMI-1640 growth medium (Gibco), supplemented with 10% fetal bovine serum (FBS; Gibco), 1% penicillin-streptomycin and 1% sodium pyruvate unless specified otherwise. The IL-1β cytokine inhibition assay was run in a background of differentiated THP-1 cells as described below. All reagents described were from Sigma-Aldrich unless specified otherwise. Compounds were prepared as 10 mM DMSO stocks.
THP-1 cells were expanded as a suspension up to 80% confluence in appropriate growth medium. Cells were harvested, suspended, and treated with an appropriate concentration of phorbol 12-myristate 13-acetate (PMA) over a 72 hr period (37° C./5% CO2).
Following 72 hrs of THP-1 cell incubation, cellular medium was removed and replaced with fresh growth media containing 1% of FBS. Working concentrations of compounds were prepared separately in 10% FBS treated growth medium and pre-incubated with the cells for 30 minutes (37° C./5% CO2). Following the 30 minute compound pre-incubation, THP-1s were treated with an appropriate concentration of LPS and the cells were subsequently incubated for a 24 hr period (37° C./5% CO2). An appropriate final concentration of Nigericin was then dispensed into the THP-1 plates and incubated for 1 hour (37° C./5% CO2) before THP-1 supernatants were harvested and collected in separate polypropylene 96-well holding plates.
Reagents from an IL-1β and IL-6 commercial kit (Perkin Elmer) were prepared and run according to the manufacturer's instructions. Subsequently, fluorescence signal detection in a microplate reader was measured (EnVision® Multilabel Reader, Perkin Elmer).
Percentage inhibition was calculated per cytokine by normalising the sample data to the high and low controls used within each plate (+/− LPS respectively).

[3] = system: NRF2 (nuclear factor erythroid 2-related factor 2); assay: NRF2 +/-GSH activation assay (DiscoverX PathHunter NRF2 translocation kit, U2OS cells); details: for NRF2 activation +GSH Emax / NRF2 activation −GSH Emax / −GSH Emax: normalised to DMF high control
How it was run: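 U2OS PathHunter eXpress cells, 24 h post-plating, treated with compound ±GSH (+GSH arm: 30 min compound–GSH pre-incubation, 6 mM working GSH), then 6 h at 37 °C. NRF2 nuclear translocation read by enzyme-fragment-complementation chemiluminescence; % activation normalised to DMF high and untreated low controls.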

[4] = THP-1, differentiated THP-1 cells, LPS then nigericin
[5] = −GSH, U2OS PathHunter cells, 6 hours compound treatment, read-out: NRF2 activation −GSH EC50
[6] = +GSH, 30 minute compound-GSH pre-incubation, read-out: NRF2 activation +GSH EC50
[7] = THP-1, Table 3, head to head comparison of exo vs endo double bond compounds
[8] = −GSH, Table 5 exo vs endo comparison, read-out: −GSH EC50
[9] = −GSH, Table 5 exo vs endo comparison

Row | SMILES | pIC50 [1, 4] | pIC50 ([2]; differentiated THP-1 cells) | NRF2 activation +GSH Emax ([3]; +GSH) [%] | pEC50 [3, 5] | NRF2 activation −GSH Emax ([3]; −GSH) [%] | pEC50 [3, 6] | pIC50 [1, 7] | pEC50 [3, 8] | −GSH Emax [3, 9] [%] | pIC50 ([2]; THP-1, differentiated THP-1 cells)
1 | C=C(C(=O)O)C1(c2nc(C3(c4ccc(C(F)(F)F)cc4)CC3)no2)CC1 [Example 156, 2-(1-(3-(1-(4-(trifluoromethyl)phenyl)cyclopropyl)-1,2,4-oxadiazol-5-yl)cyclopropyl)acrylic acid] | 5.28 | 4.25 | −16.4 | < 4.00 | 0 |  |  |  |  | 
2 | C=C(Cc1nc(-c2cc(F)c(OCCCC)c(F)c2)no1)C(=O)O [Example 162, 2-((3-(4-butoxy-3,5-difluorophenyl)-1,2,4-oxadiazol-5-yl)methyl)acrylic acid] | < 4.33 | 5.19 | 269 | 5.96 | 232 | 5.89 |  |  |  | 
3 | C/C(=C\c1nc(C2(c3ccc(S(F)(F)(F)(F)F)cc3)CC2)no1)C(=O)O [Example 169] | < 4.50 | 4.69 | 15.4 | < 4.00 | 43 | < 4.00 | < 4.50 | < 4.00 | 43 | 
4 | C/C(=C\c1nc(C2(c3ccc(SC(F)(F)F)cc3)CC2)no1)C(=O)O [Example 170] | < 4.50 | 4.68 | 96.5 | 4.41 | 177 | 4.46 | < 4.50 | 4.41 | 177 | 
5 | C=C(Cc1cccc(Cc2ccc(Cl)cc2)n1)C(=O)O [Example 171, 2-((6-(4-chlorobenzyl)pyridin-2-yl)methyl)acrylic acid trifluoroacetic acid salt] | < 4.00 |  | 0 | < 4.00 | 5 | < 4.00 |  |  |  | < 4.00
6 | C=C(C(=O)O)C(C)(C)c1nc(C2(c3ccc(C(F)(F)F)cc3)CC2)no1 [Example 172] | 5.29 | 4.17 | 7.6 | < 4.00 | 0 | < 4.00 |  |  |  | 
7 | C=C(C(=O)O)C1(c2nc(C(F)(F)c3ccc(C(F)(F)F)cc3)no2)CC1 [Example 173, 2-(1-(3-(difluoro(4-(trifluoromethyl)phenyl)methyl)-1,2,4-oxadiazol-5-yl)cyclopropyl)acrylic acid] | 5.12 | < 4.00 | 2.1 | 4.28 | 64 | 4.21 |  |  |  | 
8 | C=C(C(=O)O)C(C)c1nc(C2(c3ccc(C(F)(F)F)cc3)CC2)no1 (stereo not drawn) [Example 174, 2-methylene-3-(3-(1-(4-(trifluoromethyl)phenyl)cyclopropyl)-1,2,4-oxadiazol-5-yl)butanoic acid] | 5.38 | < 4.00 | 1.8 | < 4.00 | 24 | < 4.00 |  |  |  | 
9 | C=C(Cc1cccc(C2(c3ccc(Cl)cc3)CC2)n1)C(=O)O [Example 175, 2-((6-(1-(4-chlorophenyl)cyclopropyl)pyridin-2-yl)methyl)acrylic acid] | 4.21 | 4.39 | 4.0 | < 4.26 | 43 | < 4.00 |  |  |  | 
10 | C=C(Cc1nc(C2(c3cc(Cl)c(Br)c(Cl)c3)CC2)no1)C(=O)O [Example 176, 2-((3-(1-(4-bromo-3,5-dichlorophenyl)cyclopropyl)-1,2,4-oxadiazol-5-yl)methyl)acrylic acid] | 5.49 | 5.12 |  | 5.27 | 222 |  |  |  |  | 
